Assay: Biodistribution of 188Re-labelled compounds in lipiodol solution in mice after tail vein injection
Assay type: in vivo
Settings: mice (ICR)
Experimental: To the ^188Re-labelled reaction mixture prepared in the foregoing Examples 4 to 6, lipiodol (5 ml) was added, mixed well and the solution was centrifuged at 3000 rpm for 10 min. The supernatant was removed and 2 ml saline was added. After mixing well, the resulting solution was centrifuged again at 3000 rpm for 10 min and the supernatant was removed to recover a lower phase of lipiodol.
Mice (ICR) were administered with an injection of ^188Re-labelled compound in lipiodol solution which was prepared in the Example 7 via the tail vein. Radioactivity distributed in tissues and weight of each tissue were measured to calculate the percentage of radioactivity per gram of unit tissue relative to total radioactivity administered.
As radiation accumulation mechanism in the lung and the liver cancer are similar, it is convenient to detect the level of radiation accumulating in the lung of a mouse suffering from liver cancer. […] Therefore, it can be inferred that a radiorhenium complex of a diaminedithiol derivative having a long side chain is effective for treating liver cancer.

With CCCCCCCCCCCC[N+]12CC[N]3CC(C)(C)[S][188Re-]31(=[O])[S]C(C)(C)C2 (centres unmarked) [^188Re-DTDD] the “Biodistribution, radioactivity in Blood” value (10 min post-injection) was 13.0 ± 0.6 percentage of radioactivity per gram, the “Biodistribution, radioactivity in Fat” value (10 min post-injection) was 5.5 ± 0.4 percentage of radioactivity per gram and the “Biodistribution, radioactivity in Heart” value (10 min post-injection) was 9.1 ± 2.3 percentage of radioactivity per gram. For the same compound, the “Biodistribution, radioactivity in Kidney” value (10 min post-injection) was 9.9 ± 0.7 percentage of radioactivity per gram, the “Biodistribution, radioactivity in Liver” value (10 min post-injection) was 14.9 ± 0.7 percentage of radioactivity per gram and the “Biodistribution, radioactivity in Lung” value (10 min post-injection) was 137.4 ± 13.1 percentage of radioactivity per gram. For the same compound, the “Biodistribution, radioactivity in Muscle” value (10 min post-injection) was 2.4 ± 0.1 percentage of radioactivity per gram, the “Biodistribution, radioactivity in Small intestine” value (10 min post-injection) was 4.8 ± 0.3 percentage of radioactivity per gram and the “Biodistribution, radioactivity in Spleen” value (10 min post-injection) was 5.6 ± 0.3 percentage of radioactivity per gram. For the same compound, the “Biodistribution, radioactivity in Stomach” value (shortened to “Biodistribution … in Stomach”) (10 min post-injection) was 18.3 ± 4.4 percentage of radioactivity per gram, the “Biodistribution, radioactivity in Blood” value (30 min post-injection) was 9.5 ± 1.1 percentage of radioactivity per gram and the “Biodistribution, radioactivity in Fat” value (30 min post-injection) was 4.4 ± 0.8 percentage of radioactivity per gram. For the same compound, the “Biodistribution, radioactivity in Heart” value (30 min post-injection) was 5.0 ± 0.9 percentage of radioactivity per gram, the “Biodistribution, radioactivity in Kidney” value (30 min post-injection) was 7.4 ± 0.5 percentage of radioactivity per gram and the “Biodistribution, radioactivity in Liver” value (30 min post-injection) was 14.6 ± 2.2 percentage of radioactivity per gram. The “Biodistribution, radioactivity in Lung” value (30 min post-injection) was 85.1 ± 7.1 percentage of radioactivity per gram, the “Biodistribution, radioactivity in Muscle” value (30 min post-injection) was 2.0 ± 0.2 percentage of radioactivity per gram and the “Biodistribution, radioactivity in Small intestine” value (30 min post-injection) was 8.3 ± 0.7 percentage of radioactivity per gram. The “Biodistribution, radioactivity in Spleen” value (30 min post-injection) was 4.8 ± 0.4 percentage of radioactivity per gram, the “Biodistribution … in Stomach” value (30 min post-injection) was 36.0 ± 5.9 percentage of radioactivity per gram and the “Biodistribution, radioactivity in Blood” value (1 hr post-injection) was 7.0 ± 0.8 percentage of radioactivity per gram. The “Biodistribution, radioactivity in Fat” value (1 hr post-injection) was 4.1 ± 0.6 percentage of radioactivity per gram, the “Biodistribution, radioactivity in Heart” value (1 hr post-injection) was 5.5 ± 0.4 percentage of radioactivity per gram and the “Biodistribution, radioactivity in Kidney” value (1 hr post-injection) was 6.2 ± 0.7 percentage of radioactivity per gram. For the same compound, the “Biodistribution, radioactivity in Liver” value (1 hr post-injection) was 13.2 ± 2.8 percentage of radioactivity per gram, the “Biodistribution, radioactivity in Lung” value (1 hr post-injection) was 82.2 ± 15.1 percentage of radioactivity per gram and the “Biodistribution, radioactivity in Muscle” value (1 hr post-injection) was 1.5 ± 0.3 percentage of radioactivity per gram. The “Biodistribution, radioactivity in Small intestine” value (1 hr post-injection) was 9.7 ± 1.2 percentage of radioactivity per gram, the “Biodistribution, radioactivity in Spleen” value (1 hr post-injection) was 3.5 ± 0.5 percentage of radioactivity per gram and the “Biodistribution … in Stomach” value (1 hr post-injection) was 49.2 ± 7.0 percentage of radioactivity per gram. For the same compound, the “Biodistribution, radioactivity in Blood” value (3 hr post-injection) was 5.1 ± 1.2 percentage of radioactivity per gram, the “Biodistribution, radioactivity in Fat” value (3 hr post-injection) was 2.4 ± 0.4 percentage of radioactivity per gram and the “Biodistribution, radioactivity in Heart” value (3 hr post-injection) was 2.7 ± 0.7 percentage of radioactivity per gram. For the same compound, the “Biodistribution, radioactivity in Kidney” value (3 hr post-injection) was 5.2 ± 0.7 percentage of radioactivity per gram, the “Biodistribution, radioactivity in Liver” value (3 hr post-injection) was 7.7 ± 0.6 percentage of radioactivity per gram and the “Biodistribution, radioactivity in Lung” value (3 hr post-injection) was 61.9 ± 10.3 percentage of radioactivity per gram. The “Biodistribution, radioactivity in Muscle” value (3 hr post-injection) was 1.0 ± 0.2 percentage of radioactivity per gram, the “Biodistribution, radioactivity in Small intestine” value (3 hr post-injection) was 11.6 ± 0.3 percentage of radioactivity per gram and the “Biodistribution, radioactivity in Spleen” value (3 hr post-injection) was 2.9 ± 0.6 percentage of radioactivity per gram. The “Biodistribution … in Stomach” value (3 hr post-injection) was 37.7 ± 12.3 percentage of radioactivity per gram, the “Biodistribution, radioactivity in Blood” value (24 hr post-injection) was 0.6 ± 0.2 percentage of radioactivity per gram and the “Biodistribution, radioactivity in Fat” value (24 hr post-injection) was 0.6 ± 0.2 percentage of radioactivity per gram. For the same compound, the “Biodistribution, radioactivity in Heart” value (24 hr post-injection) was 1.5 ± 0.3 percentage of radioactivity per gram, the “Biodistribution, radioactivity in Kidney” value (24 hr post-injection) was 1.9 ± 0.3 percentage of radioactivity per gram and the “Biodistribution, radioactivity in Liver” value (24 hr post-injection) was 3.3 ± 1.1 percentage of radioactivity per gram. For the same compound, the “Biodistribution, radioactivity in Lung” value (24 hr post-injection) was 47.2 ± 9.2 percentage of radioactivity per gram, the “Biodistribution, radioactivity in Muscle” value (24 hr post-injection) was 0.3 ± 0.0 percentage of radioactivity per gram and the “Biodistribution, radioactivity in Small intestine” value (24 hr post-injection) was 9.2 ± 6.9 percentage of radioactivity per gram. For the same compound, the “Biodistribution, radioactivity in Spleen” value (24 hr post-injection) was 3.3 ± 1.0 percentage of radioactivity per gram and the “Biodistribution … in Stomach” value (24 hr post-injection) was 5.4 ± 1.6 percentage of radioactivity per gram.

Source: US7067508B2, “Diaminedithiol derivatives and radiorhenium or radiotechnetium complex thereof; a liver cancer-treating composition comprising the radiorhenium complex and lipiodol; and a kit for preparation of the liver cancer-treating composition” (Seoul National University Industry Foundation, priority 2001, dated 2006)
